Results taken from ChEMBL document CHEMBL4513160, “CO-ADD screening of MMV (CH) - Small Polar Library”.
In brackets after ≈: the same amount, converted by molar mass.

What was measured:
[1] = tested on: Acinetobacter baumannii; test: microbe, parasite or virus in culture; conditions: ATCC 19606, 18 h, ASSAY_TEST Inhibition of Bacterial Growth, detection method Absorption (OD600), MEDIA CAMHB, plate type 384well, NBS, CORNING #3640
Description: Antibacterial activity against Acinetobacter baumannii ATCC 19606 (CO-ADD:GN_034); MIC in CAMBH media using NBS plates, by OD600

[2] = tested on: Pseudomonas aeruginosa; test: microbe, parasite or virus in culture; conditions: ATCC 27853, 18 h, ASSAY_TEST Inhibition of Bacterial Growth, detection method Absorption (OD600), MEDIA CAMHB, plate type 384well, NBS, CORNING #3640
Description: Antibacterial activity against Pseudomonas aeruginosa ATCC 27853 (CO-ADD:GN_042); MIC in CAMBH media using NBS plates, by OD(600)

[3] = tested on: Pseudomonas aeruginosa; test: Antibacterial activity against Pseudomonas aeruginosa PAO397 [PAO1 d(mexAB-oprM) d(mexCD-oprJ) d(mexEF-oprN) d(mexJKL) d(mexXY) d(opmH)] (CO-ADD:GN_211); MIC in CAMBH media using NBS plates, by OD(600); type: functional; conditions: ASSAY_TEST Inhibition of Bacterial Growth, detection method Absorption (OD600), MEDIA CAMHB, plate type 384well, CORNING #3640, time 18 hr

Structure (SMILES) | MIC [1] [µM] | MIC [2] [µM] | MIC [3] [µM]
CCC(C)(C)NC(=O)c1nnn(-c2ccccc2)c1C | > 300 | > 300 | > 300
CC(C)CNC(=O)CSc1n[nH]c(-c2ccccn2)n1 | > 300 | > 300 | 60 (≈ 17.5 µg/mL)
NC1CSCc2c(F)cccc21 (centres undefined) | > 300 | > 300 | > 300
CCOC(=O)C(CN)CC(C)C (centres undefined) | > 300 | > 300 | > 300
COCC(C)NCc1ccccc1CN1CCCC1=O (centres undefined) | > 300 | > 300 | > 300
COc1ccc(NC(=O)c2ccc(S(N)(=O)=O)o2)cc1 | > 300 | > 300 | 200 (≈ 59.3 µg/mL)
CCCOc1ccc(NS(=O)(=O)N(C)C)cc1Cl | > 300 | > 300 | > 300
Cc1ccc(C(=O)NCc2ccnc(N(C)C)c2)s1 | > 300 | > 300 | > 300
Cc1ccncc1NC1CS(=O)(=O)c2ccccc21 (centres undefined) | > 300 | > 300 | > 300
CN(Cc1ccc(Cl)cc1)C(=O)C1CCNC1 (centres undefined) | > 300 | > 300 | > 300
CSC(C)(C)COC(=O)c1ccc(-n2ccnc2)nc1 | > 300 | > 300 | > 300
NCC(=O)N1CCCC(CCc2ccc(F)cc2)C1 (centres undefined) | > 300 | > 300 | > 300
O=C(Nc1cc[nH]n1)c1csc(I)c1 | > 300 | > 300 | > 300
CS(=O)(=O)c1ccc(CN)o1 | > 300 | > 300 | > 300
CCn1cc(C(=O)Nc2ccc(Br)cn2)cn1 | > 300 | > 300 | > 300
NCC1CCOc2ccccc21 (centres undefined) | > 300 | > 300 | > 300
NC1CCN(c2ccccc2F)CC1 | > 300 | > 300 | > 300
C1CCC(C2CCNCC2)OC1 (centres undefined) | > 300 | > 300 | > 300
FC(F)Oc1cccc(N2CCNCC2)c1 | > 300 | > 300 | > 300
CNc1nnc(-c2ccccc2)s1 | > 300 | > 300 | > 300
Cc1cccc(S(=O)(=O)NC2CCNC2)c1Cl (centres undefined) | > 300 | > 300 | > 300
CNCCC1CCN(c2ccncc2)CC1 | > 300 | > 300 | > 300

Structure (SMILES) | MIC [1] [µM] | MIC [2] [µM] | MIC [3] [µM]
C[C@@H](N)C(=O)NCc1cc2cc(Cl)ccc2[nH]1 | > 300 | > 300 | 300 (≈ 75.5 µg/mL)
Cc1c[nH]c2ccccc2c1=N | > 300 | > 300 | > 300
Cc1cccc(NC(C)c2ccc(S(N)(=O)=O)cc2)n1 (centres undefined) | > 300 | > 300 | > 300
NCc1cnn(-c2cccc(Cl)c2)c1 | > 300 | > 300 | > 300
NCC(CO)Cc1ccc(Br)cc1 (centres undefined) | > 300 | > 300 | > 300
O=C(CSc1ncn[nH]1)Nc1ncc(Br)s1 | > 300 | > 300 | > 300
OC1(Cn2ccnn2)CCCNC1 (centres undefined) | > 300 | > 300 | > 300
CN(CCOc1ccc(Cl)cc1)C(=O)C(C)(C)CN | > 300 | > 300 | > 300
Cn1cc(NC(=O)c2ccc(Br)s2)cc1C(N)=O | > 300 | > 300 | > 300
O=C(c1cnsn1)N1CCN(c2ccccn2)CC1 | > 300 | > 300 | > 300
CCc1cccc2c1OCCC2N (centres undefined) | > 300 | > 300 | > 300
CNC(=O)C1CCN(C(=O)Nc2ccc(C)c(Cl)c2)C1 (centres undefined) | > 300 | > 300 | 90 (≈ 26.6 µg/mL)
NCCNc1ccc2ccccc2n1 | > 300 | > 300 | > 300
CC(CSc1n[nH]c(-c2ccccn2)n1)CS(C)(=O)=O (centres undefined) | > 300 | > 300 | > 300
CCOc1cc(Cl)ccc1CN | > 300 | > 300 | > 300
NCC(O)c1ccc(-c2ccccc2)cc1 (centres undefined) | > 300 | > 300 | > 300
Cn1cc(CC(=O)Nc2ccc(I)cn2)cn1 | > 300 | > 300 | > 300
Ic1nnnn1-c1ccccc1 | > 300 | 60 (≈ 16.3 µg/mL) | 25 (≈ 6.8 µg/mL)
N#Cc1cc(N2CCC[C@@H]2CO)nc2ccccc12 | > 300 | > 300 | > 300
N[C@@H]1CCCc2c(F)cc(F)cc21 | > 300 | > 300 | > 300
CCS(=O)(=O)NCC(N)c1ccc(C(C)C)cc1 (centres undefined) | > 300 | > 300 | > 300
